Source: US20250346600A1, “TRICYCLIC DERIVATIVES AND RELATED USES” (MOMA Therapeutics, Inc., priority 2023, published 2025)

What was measured:
HCT116 cells = assay: HCT116 (MSI) 7 day viability, CellTiter Glo; format: cell-based; conditions: Homo sapiens, HCT-116, 168 h, 7 days, read-out: HCT116 (MSI) Viability 7 Day Abs AC50
In short: (§1)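 HCT116 (50 cells/well) or HT29 (500 cells/well) exposed 7 days at 37° C, 5% CO2, to 10-point 3-fold compound dilutions. Viability measured by CellTiter Glo luminescence, background from cell-free wells; IC50 from four-parameter logistic fit, geometric mean of at least 2 replicates.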

[1] = target: Full length WRN protein (aa 2-1432) (Homo sapiens (Human), UniProt Q14191); assay: WRN ATPase ADP-Glo biochemical assay, Assay Format A (10 μM ATP); conditions: 0.25 nM WRN, 100 nM C6.18 ssDNA, 30 min preincubation, read-out: ATPase ADPGlo AC50 (uM)- Assay Format A
Full length WRN protein (aa 2-1432), sequence (Q14191 2-1432): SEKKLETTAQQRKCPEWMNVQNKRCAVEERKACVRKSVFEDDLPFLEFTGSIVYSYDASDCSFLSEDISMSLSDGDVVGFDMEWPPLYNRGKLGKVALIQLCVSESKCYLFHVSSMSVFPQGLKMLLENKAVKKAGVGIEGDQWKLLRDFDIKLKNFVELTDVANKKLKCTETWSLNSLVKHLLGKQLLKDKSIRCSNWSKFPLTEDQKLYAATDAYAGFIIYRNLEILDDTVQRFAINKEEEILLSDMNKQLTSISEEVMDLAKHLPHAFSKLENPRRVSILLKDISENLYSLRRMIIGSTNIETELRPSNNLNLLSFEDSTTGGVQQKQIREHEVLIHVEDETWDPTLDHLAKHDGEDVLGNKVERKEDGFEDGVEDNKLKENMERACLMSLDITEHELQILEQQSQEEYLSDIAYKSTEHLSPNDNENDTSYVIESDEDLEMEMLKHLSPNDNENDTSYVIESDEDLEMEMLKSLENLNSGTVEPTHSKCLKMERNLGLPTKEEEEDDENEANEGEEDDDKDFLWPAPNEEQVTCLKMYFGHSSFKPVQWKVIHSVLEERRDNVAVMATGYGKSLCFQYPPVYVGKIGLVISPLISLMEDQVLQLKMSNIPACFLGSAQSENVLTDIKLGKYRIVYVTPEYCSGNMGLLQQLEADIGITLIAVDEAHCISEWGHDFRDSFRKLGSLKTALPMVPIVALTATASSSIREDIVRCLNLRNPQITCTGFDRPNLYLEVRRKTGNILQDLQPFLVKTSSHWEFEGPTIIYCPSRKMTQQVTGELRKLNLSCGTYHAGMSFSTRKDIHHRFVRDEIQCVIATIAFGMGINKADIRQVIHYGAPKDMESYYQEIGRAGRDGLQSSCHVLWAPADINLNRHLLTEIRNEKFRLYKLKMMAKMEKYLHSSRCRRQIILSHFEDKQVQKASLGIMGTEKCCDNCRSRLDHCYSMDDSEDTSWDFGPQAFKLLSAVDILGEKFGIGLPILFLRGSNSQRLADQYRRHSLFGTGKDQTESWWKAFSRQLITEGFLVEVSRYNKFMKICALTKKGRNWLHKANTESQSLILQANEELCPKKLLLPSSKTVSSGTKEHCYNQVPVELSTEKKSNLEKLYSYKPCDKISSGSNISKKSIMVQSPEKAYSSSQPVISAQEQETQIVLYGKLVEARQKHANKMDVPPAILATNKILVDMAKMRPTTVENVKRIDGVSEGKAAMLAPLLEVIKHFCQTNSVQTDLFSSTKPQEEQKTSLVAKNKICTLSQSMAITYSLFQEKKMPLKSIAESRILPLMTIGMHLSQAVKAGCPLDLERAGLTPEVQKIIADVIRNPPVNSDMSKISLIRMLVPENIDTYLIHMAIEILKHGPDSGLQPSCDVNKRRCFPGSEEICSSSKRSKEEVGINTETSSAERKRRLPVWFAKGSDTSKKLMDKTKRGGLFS
Text: Full length Werner helicase construct (Uniprot: Q14191) with an N-terminal FLAG-AVI-TEV tag was expressed using the Sf9 cell/baculovirus expression system. The harvested cell pellet was resuspended and lysed in a glass homogenizer. After insoluble material was removed by centrifugation, the helicase protein was first purified with FLAG affinity resin and then further purified through a size-exclusion chromatography column. Peak fractions containing the purified protein were concentrated, split into aliquots and frozen in liquid nitrogen to be thawed before use. Biochemical Assay Description (ATPase activity)-Assay Format A WRN activity was measured using an ATPase assay. Full length WRN protein (aa 2-1432) (production described separately) was used for the biochemical activity assays. The 39-mer ssDNA “C6.18” [NT] was purchased from IDT and used as a substrate. Quantification of ATP hydrolysis was evaluated using the ADP-Glo assay kit (Promega, Madison, WI). An enzyme titration time-course was performed to determine the optimal assay conditions. […] To evaluate the inhibitory effects of the compounds, 11-point 3-fold serial dilutions were prepared in DMSO. 50 nL of each concentration in duplicate was preincubated for 30 minutes in a 384-well microplate (Greiner #784075) with 5 μL of 0.5 nM WRN in assay buffer. The reaction was initiated by adding 5 μL of 200 nM C6.18 DNA with 20 μM ATP and was allowed to proceed for 30 minutes at room temperature. The reaction was stopped with 10 μL ADP-Glo reagent for 1 hour to remove unreacted ATP. Lastly, 20 μL ATP detection reagent was added and incubated for 1 hour to generate the luminescence signal. Control wells included “high controls” with no inhibition (DMSO, no compound) and “low controls” with maximum inhibition (no WRN). Luminescence was recorded on a PHERAstar (BMG Labtech, Ortenberg, Germany). Data was fit using the “Smart Fit” method within the Genedata Screener Software (Basel, Switzerland) to obtain IC50 values using four-parameter fits. Reported IC50s are the geometric means of at least two independent trials.

HT29 cells = assay: HT29 (MSS) 7 day viability, CellTiter Glo; format: cell-based; conditions: Homo sapiens, HT-29, 168 h, 7 days, read-out: HT29 (MSS) Viability 7 Day CTGAbs AC50
In short: as §1

| AC50 [1] [µM] | Compound | AC50 (HCT116 cells) [nM] | AC50 (HT29 cells) [nM] |
| --- | --- | --- | --- |
| < 0.0015 | C=CC(=O)N1CCc2nn(-c3ccc(C4CCC4)cc3O)c3c2C(C1)N(C(=O)c1cnc(C(F)(F)F)c2[nH]ncc12)CC3 (stereo not drawn) [Compound 151, 1-(2-(4-cyclobutyl-2-hydroxyphenyl)-5-(7-(trifluoromethyl)-1H-pyrazolo[3,4-c]pyridine-4-carbonyl)-2,3,4,5,5a,6,8,9-octahydro-7H-1,2,5,7-tetraazabenzo[cd]azulen-7-yl)prop-2-en-1-one] | 1 to 100 | > 3000 |
| 0.015 to 0.055 | C=CC(=O)N1CCn2nc(-c3ccc(C(C)C)cc3)c3c2C(C1)N(C(=O)c1ccc(Br)c(O)c1)CC3 (stereo not drawn) [Compound 37, 1-(5-(4-bromo-3-hydroxybenzoyl)-2-(4-isopropylphenyl)-4,5,5a,6,8,9-hexahydro-1,5,7,9a-tetraazabenzo[cd]azulen-7(3H)-yl)prop-2-en-1-one] | > 1000 | > 3000 |
| > 0.055 | C=CC(=O)N1CCc2nn(-c3ccc(C(C)C)cc3)c3c2C(C1)N(C(=O)C1CC1)CC3 (stereo not drawn) [Compound 170, 1-(5-(cyclopropanecarbonyl)-2-(4-isopropylphenyl)-2,3,4,5,5a,6,8,9-octahydro-7H-1,2,5,7-tetraazabenzo[cd]azulen-7-yl)prop-2-en-1-one] | > 1000 | > 3000 |
| 0.005 to 0.015 | C=CC(=O)N1Cc2nn(-c3ccc(C(C)C)cc3C)c3c2C(C1)N(C(=O)c1ccc(Br)c(O)c1)CC3 (stereo not drawn) [Compound 35, 1-(6-(4-bromo-3-hydroxybenzoyl)-1-(4-isopropyl-2-methylphenyl)-1,5,5a,6,7,8-hexahydropyrazolo[3,4,5-de][1,7]naphthyridin-4(3H)-yl)prop-2-en-1-one] | 100 to 250 | > 3000 |
| > 0.055 | C=CC(=O)N1CCc2nn(-c3ccc(C4CC4)cc3)c3c2C(C1)N(C(=O)c1ccc(OCC(F)(F)F)nc1)CC3 (stereo not drawn) [Compound 118, 1-(2-(4-cyclopropylphenyl)-5-(6-(2,2,2-trifluoroethoxy)nicotinoyl)-2,3,4,5,5a,6,8,9-octahydro-7H-1,2,5,7-tetraazabenzo[cd]azulen-7-yl)prop-2-en-1-one] | > 1000 | > 3000 |
| > 0.055 | C=CC(=O)N1CCc2nn(-c3ccc(C4CC4)cc3)c3c2C(C1)N(C(=O)c1cc2n(n1)CCN(C)S2(=O)=O)CC3 (stereo not drawn) [Compound 116, 1-(2-(4-cyclopropylphenyl)-5-(2-methyl-1,1-dioxido-3,4-dihydro-2H-pyrazolo[1,5-e][1,2,5]thiadiazine-7-carbonyl)-2,3,4,5,5a,6,8,9-octahydro-7H-1,2,5,7-tetraazabenzo[cd]azulen-7-yl)prop-2-en-1-one] | > 1000 | > 3000 |
| 0.015 to 0.055 | CN(C)CC=CC(=O)N1CCOc2nn(-c3ccc(C4CCC4)cc3)c3c2C(C1)N(C(=O)c1ccc(Br)c2[nH]cnc12)CC3 (stereo not drawn) [Compound 51, 1-(5-(7-bromo-1H-benzo[d]imidazole-4-carbonyl)-2-(4-cyclobutylphenyl)-2,3,4,5,5a,6,8,9-octahydro-7H-10-oxa-1,2,5,7-tetraazacycloocta[cd]inden-7-yl)-4-(dimethylamino)but-2-en-1-one] | > 1000 | > 3000 |
| 0.015 to 0.055 | C=CC(=O)N1CCc2nn(-c3ccc(C4CC4)cc3)c3c2C(C1)N(C(=O)c1ccc(OC(C)C)nc1)CC3 (stereo not drawn) [Compound 122, 1-(2-(4-cyclopropylphenyl)-5-(6-isopropoxynicotinoyl)-2,3,4,5,5a,6,8,9-octahydro-7H-1,2,5,7-tetraazabenzo[cd]azulen-7-yl)prop-2-en-1-one] | 500 to 1000 | > 3000 |
| 0.015 to 0.055 | C=CC(=O)N1CCN(C)c2nn(-c3ccc(C(C)C)cc3)c3c2C(C1)N(C(=O)c1ccc(Br)c2[nH]cnc12)CC3 (stereo not drawn) [Compound 56, 1-(5-(7-bromo-1H-benzo[d]imidazole-4-carbonyl)-2-(4-isopropylphenyl)-10-methyl-2,4,5,5a,6,8,9,10-octahydro-1,2,5,7,10-pentaazacycloocta[cd]inden-7(3H)-yl)prop-2-en-1-one] | 250 to 500 | > 3000 |
| 0.015 to 0.055 | C=CC(=O)N1CCc2nn(-c3ccc(C4CC4)cc3)c3c2C(C1)N(C(=O)c1ccc(-n2cccn2)nc1)CC3 (stereo not drawn) [Compound 98, 1-(5-(6-(1H-pyrazol-1-yl)nicotinoyl)-2-(4-cyclopropylphenyl)-2,3,4,5,5a,6,8,9-octahydro-7H-1,2,5,7-tetraazabenzo[cd]azulen-7-yl)prop-2-en-1-one] | 250 to 500 | > 3000 |
| 0.0015 to 0.005 | C=CC(=O)N1CCc2nn(-c3ccc(C4CC4)cc3)c3c2C(C1)N(C(=O)c1cnc([N+](=O)[O-])c(O)c1)CC3 (stereo not drawn) [Compound 120, 1-(2-(4-cyclopropylphenyl)-5-(5-hydroxy-6-nitronicotinoyl)-2,3,4,5,5a,6,8,9-octahydro-7H-1,2,5,7-tetraazabenzo[cd]azulen-7-yl)prop-2-en-1-one] | > 1000 | > 3000 |
| < 0.0015 | C=CC(=O)N1CCc2nn(-c3ccc(C4CCC4)cc3O)c3c2C(C1)N(C(=O)c1cnc(Br)c2[nH]cnc12)CC3 (stereo not drawn) [Compound 137, 1-(5-(4-bromo-3H-imidazo[4,5-c]pyridine-7-carbonyl)-2-(4-cyclobutyl-2-hydroxyphenyl)-2,3,4,5,5a,6,8,9-octahydro-7H-1,2,5,7-tetraazabenzo[cd]azulen-7-yl)prop-2-en-1-one] | 1 to 100 | > 3000 |
| 0.0015 to 0.005 | C=CC(=O)N1CCOc2nn(-c3ccc(C(C)C)cc3)c3c2C(C1)N(C(=O)c1ccc(Br)c(O)c1)CC3 (stereo not drawn) [Compound 48, 1-(5-(4-bromo-3-hydroxybenzoyl)-2-(4-isopropylphenyl)-2,3,4,5,5a,6,8,9-octahydro-7H-10-oxa-1,2,5,7-tetraazacycloocta[cd]inden-7-yl)prop-2-en-1-one] | 100 to 250 | > 3000 |
| 0.015 to 0.055 | C=CC(=O)N1CCc2nn(-c3ccc(C4CC4)cc3)c3c2C(C1)N(C(=O)c1ccc(C2(C#N)CC2)nc1)CC3 (stereo not drawn) [Compound 119, 1-(5-(7-acryloyl-2-(4-cyclopropylphenyl)-3,4,5,5a,6,7,8,9-octahydro-2H-1,2,5,7-tetraazabenzo[cd]azulene-5-carbonyl)pyridin-2-yl)cyclopropane-1-carbonitrile] | > 1000 | > 3000 |
| 0.005 to 0.015 | C=CC(=O)N1CCc2nn(-c3ccc(C4CC4)cc3)c3c2C(C1)N(C(=O)c1ccc(C(F)F)nc1)CC3 (stereo not drawn) [Compound 126, 1-(2-(4-cyclopropylphenyl)-5-(6-(difluoromethyl)nicotinoyl)-2,3,4,5,5a,6,8,9-octahydro-7H-1,2,5,7-tetraazabenzo[cd]azulen-7-yl)prop-2-en-1-one] | 250 to 500 | > 3000 |
| 0.015 to 0.055 | C=CC(=O)N1CCOCc2nn(-c3ccc(C(C)C)cc3C)c3c2C(C1)N(C(=O)c1ccc(Br)c(O)c1)CC3 (stereo not drawn) [Compound 36, 1-(5-(4-bromo-3-hydroxybenzoyl)-2-(4-isopropyl-2-methylphenyl)-2,4,5,5a,6,8,9,11-octahydro-10-oxa-1,2,5,7-tetraazacyclonona[cd]inden-7(3H)-yl)prop-2-en-1-one] | 500 to 1000 | > 3000 |
| 0.015 to 0.055 | C=CC(=O)N1CCc2nn(-c3ccc(C4CC4)cc3)c3c2C(C1)N(C(=O)c1ccc(C#N)nc1)CC3 (stereo not drawn) [Compound 123, 5-(7-acryloyl-2-(4-cyclopropylphenyl)-3,4,5,5a,6,7,8,9-octahydro-2H-1,2,5,7-tetraazabenzo[cd]azulene-5-carbonyl)picolinonitrile] | 250 to 500 | > 3000 |
| 0.015 to 0.055 | C=CC(=O)N1CCc2nn(-c3ccc(C4CC4)cc3)c3c2C(C1)N(C(=O)c1ccc(C(F)(F)F)nn1)CC3 (stereo not drawn) [Compound 115, 1-(2-(4-cyclopropylphenyl)-5-(6-(trifluoromethyl)pyridazine-3-carbonyl)-2,3,4,5,5a,6,8,9-octahydro-7H-1,2,5,7-tetraazabenzo[cd]azulen-7-yl)prop-2-en-1-one] | 500 to 1000 | > 3000 |
